Target: T1, E. coli MetK (Escherichia coli, UniProt P0A817)
T1 sequence (P0A817 2-384): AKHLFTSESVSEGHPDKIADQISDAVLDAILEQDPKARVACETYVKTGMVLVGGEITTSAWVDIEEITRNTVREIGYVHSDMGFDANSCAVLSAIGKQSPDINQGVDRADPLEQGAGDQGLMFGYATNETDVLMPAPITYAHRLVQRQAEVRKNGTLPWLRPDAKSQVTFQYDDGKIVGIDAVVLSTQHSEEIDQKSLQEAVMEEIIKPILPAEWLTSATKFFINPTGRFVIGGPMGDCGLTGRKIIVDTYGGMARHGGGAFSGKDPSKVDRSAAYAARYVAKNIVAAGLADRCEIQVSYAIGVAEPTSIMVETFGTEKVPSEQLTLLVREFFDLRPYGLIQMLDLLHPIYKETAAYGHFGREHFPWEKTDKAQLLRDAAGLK
Assay: preparative synthesis of […]-methyl S-adenosyl methionine
Assay type: biochemical
Conditions: co-substrate 1 mM L-methionine methyl-13C; pH 8.2, 100 mM KCl, 10 mM MgCl2, 30 °C

## Nc1ncnc2c1ncn2[C@@H]1O[C@H](COP(=O)(O)OP(=O)(O)OP(=O)(O)O)[C@@H](O)[C@H]1O [ATP]
  preparative synthesis of 13C-methyl S-adenosyl methionine: synthesized from methionine and ATP by the E. coli MetK enzyme

— publication PMC4986899 (RNA, 2016)
